The source of these data is PubChem BioAssay AID330 (DTP/NCI, 2004).

Several values for one entry are separate records, joined by “and”; a condition that tells them apart may be missing. Equal entries are not always repeated. Toxic doses and inconclusive results are not listed.

The test system of this experiment is P388 leukemia ip, CD2F1 mice, survival T/C. Description: NCI In Vivo Anticancer Drug Screen. Data for tumor model P388 Leukemia (intraperitoneal) in CD2F1 (CDF1) mice. The note with it: endpoint: median survival time, higher = longer survival. In short, it runs like this: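 Mice carrying the transplanted tumor received test compound or vehicle. Survival was recorded in each group, and the value is the treated-group measurement divided by that of the vehicle-treated control group.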

Where [1] appears, read: dose: 60.0 mg/kg/injection, schedule: Q01DX005 (ip), vehicle: saline with Tween-80.
Setting [2] is: dose: 120.0 mg/kg/injection, schedule: Q01DX005 (ip), vehicle: saline with Tween-80.
The mark [3] stands for this setting: dose: 50.0 mg/kg/injection, schedule: Q01DX009 (ip), vehicle: saline.
The mark [4] stands for this setting: dose: 100.0 mg/kg/injection, schedule: Q01DX009 (ip), vehicle: saline.
[5] abbreviates: dose: 200.0 mg/kg/injection, schedule: Q01DX009 (ip), vehicle: saline.
[6] abbreviates: dose: 60.0 mg/kg/injection, schedule: Q01DX005 (ip), vehicle: Klucel (hydroxypropylcellulose) (HPC).
Setting [7] is: dose: 120.0 mg/kg/injection, schedule: Q01DX005 (ip), vehicle: Klucel (hydroxypropylcellulose) (HPC).
[8] abbreviates: dose: 50.0 mg/kg/injection, schedule: Q01DX005 (ip), vehicle: saline with Tween-80.
Where [9] appears, read: dose: 100.0 mg/kg/injection, schedule: Q01DX005 (ip), vehicle: saline with Tween-80.
The mark [10] stands for this setting: dose: 200.0 mg/kg/injection, schedule: Q01DX005 (ip), vehicle: saline with Tween-80.

As for `C=C1C(=O)O[C@@H]2/C=C(/C)[C@@]3(O)C=C[C@](C)(C[C@@H](OC(=O)/C(=C\C)COC(C)=O)[C@@H]12)O3`, the T/C reads like this: (dose: 2.5 mg/kg/injection, schedule: Q01DX009 (ip), vehicle: carboxymethylcellulose (CMC)) 106 % of control; (dose: 5.0 mg/kg/injection, schedule: Q01DX009 (ip), vehicle: carboxymethylcellulose (CMC)) 120 % of control; (dose: 10.0 mg/kg/injection, schedule: Q01DX009 (ip), vehicle: carboxymethylcellulose (CMC)) 101 % of control; (dose: 20.0 mg/kg/injection, schedule: Q01DX009 (ip), vehicle: carboxymethylcellulose (CMC)) 120 % of control.

Consider `Cc1cc(C)c[n+](-c2nc3c([O-])n(C)c(=O)n(C)c-3n2)c1`, for which the T/C (dose: 100.0 mg/kg/injection, schedule: Q04DX003 (ip), vehicle: saline) was 94 % of control; the T/C (dose: 200.0 mg/kg/injection, schedule: Q04DX003 (ip), vehicle: saline) was 98 % of control; the T/C (dose: 400.0 mg/kg/injection, schedule: Q04DX003 (ip), vehicle: saline) is 103 % of control.

In the case of `C/C=C\C1OC1(C)c1cc(=O)c2c(C)cc3c(c2o1)C(=O)c1c(O)c(C2CC(C)(N(C)C)C(OC(C)=O)C(C)O2)cc(C2CC(N(C)C)C(O)C(C)O2)c1C3=O` (centres undefined), the T/C (dose: 1.0 mg/kg/injection, schedule: Q01DX009 (ip), vehicle: saline + alcohol) is 122 % of control; the T/C (dose: 1.0 mg/kg/injection, schedule: Q01DX010 (ip), vehicle: saline) was 154 % of control; the T/C (dose: 2.0 mg/kg/injection, schedule: Q01DX010 (ip), vehicle: saline) was 95 % of control.

With `CNc1ncnc2c1ncn2C1CCCCO1` (centres undefined), the T/C (dose: 50.0 mg/kg/injection, schedule: Q01DX005 (ip), vehicle: saline) was 102 % of control; the T/C (dose: 100.0 mg/kg/injection, schedule: Q01DX005 (ip), vehicle: saline) is 100 % of control; the T/C (dose: 200.0 mg/kg/injection, schedule: Q01DX005 (ip), vehicle: saline) is 91 % of control.

For the compound `CN(NC=O)C(=N)N`, the T/C (dose: 50.0 mg/kg/injection, schedule: Q01DX001 (ip), vehicle: saline) was 109 % of control; the T/C (dose: 100.0 mg/kg/injection, schedule: Q01DX001 (ip), vehicle: saline) is 100 % of control; the T/C (dose: 200.0 mg/kg/injection, schedule: Q01DX001 (ip), vehicle: saline) was 102 % of control.

With `Cc1nc(N)nc(N)c1N1CCN(c2ccc(C(=O)NC(CCC(=O)O)C(=O)O)cc2)CC1` (centres undefined), the T/C (dose: 1.56 mg/kg/injection, schedule: Q01DX005 (ip), vehicle: water) was 111 % of control; the T/C (dose: 12.5 mg/kg/injection, schedule: Q01DX005 (ip), vehicle: distilled water + Tween-80) was 168 % of control; the T/C (dose: 12.5 mg/kg/injection, schedule: Q01DX005 (ip), vehicle: water) is 150 % of control; the T/C (dose: 25.0 mg/kg/injection, schedule: Q01DX005 (ip), vehicle: distilled water + Tween-80) was 176 % of control; the T/C (dose: 25.0 mg/kg/injection, schedule: Q01DX005 (ip), vehicle: water) was 176 % of control; the T/C (dose: 50.0 mg/kg/injection, schedule: Q01DX005 (ip), vehicle: water) is 222 % of control. For the same compound, the T/C (dose: 100.0 mg/kg/injection, schedule: Q01DX005 (ip), vehicle: distilled water + Tween-80) is 87 % of control.

Take `CN1CCc2cc3c(cc2[C@H]1[C@@H]1OC(=O)c2c1ccc1c2OCO1)OCO3`: the T/C was 101 % of control (dose: 6.25 mg/kg/injection, schedule: Q01DX005 (ip), vehicle: saline with Tween-80) and 97 % of control (dose: 12.5 mg/kg/injection, schedule: Q01DX005 (ip), vehicle: saline with Tween-80).

Turning to `O=C(NCC1CC1)c1ccccc1NC(=O)c1cc2ccccc2oc1=O`, the T/C by setting is: under setting [1], 100 % of control; under setting [2], 100 % of control; (dose: 240.0 mg/kg/injection, schedule: Q01DX005 (ip), vehicle: saline with Tween-80) 108 % of control.

For `CSC(C=P(c1ccccc1)(c1ccccc1)c1ccccc1)=Nc1ccccc1`, the T/C is 101 % of control (dose: 6.25 mg/kg/injection, schedule: Q01DX009 (ip), vehicle: saline with Tween-80); 101 % of control (dose: 12.5 mg/kg/injection, schedule: Q01DX009 (ip), vehicle: saline with Tween-80); 102 % of control and 103 % of control (dose: 25.0 mg/kg/injection, schedule: Q01DX009 (ip), vehicle: saline with Tween-80).

On to `CNC(=S)N/N=C/c1ccccn1`, for which the T/C by setting is: (dose: 25.0 mg/kg/injection, schedule: Q01DX009 (ip), vehicle: saline) 117 % of control; under setting [3], 116 % of control; under setting [4], 101 % of control; under setting [5], 97 % of control.

Take `CCCCCCC(C)N=[N+]([O-])CC(C)OC(C)=O` (centres undefined): the T/C reads like this: (dose: 10.0 mg/kg/injection, schedule: Q01DX009 (ip), vehicle: saline with Tween-80) 121 % of control; (dose: 20.0 mg/kg/injection, schedule: Q01DX009 (ip), vehicle: saline with Tween-80) 105 % of control; (dose: 40.0 mg/kg/injection, schedule: Q01DX009 (ip), vehicle: saline with Tween-80) 121 % of control.

As for `CC(C)c1cc(C(=O)O)c(O)c(C(C)C)c1.CC(C)c1cc(C(=O)O)c(O)c(C(C)C)c1.[Mn]`, the T/C was 104 % of control and 106 % of control (dose: 15.0 mg/kg/injection, schedule: Q01DX005 (ip), vehicle: Klucel (hydroxypropylcellulose) (HPC)); 101 % of control (dose: 15.0 mg/kg/injection, schedule: Q01DX005 (ip), vehicle: other); 110 % of control and 114 % of control (dose: 30.0 mg/kg/injection, schedule: Q01DX005 (ip), vehicle: Klucel (hydroxypropylcellulose) (HPC)); 105 % of control and 109 % of control (dose: 30.0 mg/kg/injection, schedule: Q01DX005 (ip), vehicle: other); 116 % of control and 117 % of control and 120 % of control under setting [6]; 114 % of control and 95 % of control (dose: 60.0 mg/kg/injection, schedule: Q01DX005 (ip), vehicle: other). Also, the T/C runs as follows: under setting [7], 112 % of control and 116 % of control; (dose: 120.0 mg/kg/injection, schedule: Q01DX005 (ip), vehicle: other) 114 % of control and 87 % of control; (dose: 240.0 mg/kg/injection, schedule: Q01DX005 (ip), vehicle: other) 100 % of control.

In the case of `CSC(=S)C(CNc1ncccn1)c1ccccc1` (centres undefined), the T/C was 89 % of control (dose: 60.0 mg/kg/injection, schedule: Q01DX005 (ip), vehicle: Klucel + Tween-80) and 89 % of control (dose: 120.0 mg/kg/injection, schedule: Q01DX005 (ip), vehicle: Klucel + Tween-80).

In the case of `CCN(CC)CCNC(=O)C(O)C1CCCCC1` (centres undefined), the T/C under setting [1] was 99 % of control and the T/C under setting [2] is 99 % of control.

In the case of `O=S(=O)(Nc1ccnn1-c1ccccc1)c1ccc(NC(=S)Nc2ccccc2)cc1`, the T/C under setting [8] was 96 % of control, the T/C under setting [9] was 93 % of control and the T/C under setting [10] was 91 % of control.

Consider `CCC[CH2][Ge]([CH2]CCC)([CH2]CCC)[S][Ge]([CH2]CCC)([CH2]CCC)[CH2]CCC`, for which the T/C runs as follows: under setting [3], 91 % of control; under setting [4], 92 % of control; under setting [5], 97 % of control.

Regarding `CCCCC(/C=N/NC(N)=S)C(=O)OCC` (centres undefined), the T/C is, setting by setting: under setting [6], 102 % of control; under setting [7], 100 % of control; (dose: 240.0 mg/kg/injection, schedule: Q01DX005 (ip), vehicle: Klucel (hydroxypropylcellulose) (HPC)) 100 % of control.

Turning to `C[n+]1c(-c2cccc(-c3ccccc3)c2)c2cc(N)ccc2c2ccccc21`, the T/C (dose: 1.56 mg/kg/injection, schedule: Q01DX009 (ip), vehicle: other) was 124 % of control.

With `Cc1ccc(SCC(=O)NCc2cccs2)cc1`, the T/C reads like this: under setting [8], 103 % of control; under setting [9], 97 % of control; under setting [10], 93 % of control.

`CCC(C)C(N)C(=O)O` (centres undefined): the T/C was 109 % of control (dose: 50.0 mg/kg/injection, schedule: Q01DX009 (ip), vehicle: Klucel (hydroxypropylcellulose) (HPC)); 94 % of control (dose: 100.0 mg/kg/injection, schedule: Q01DX009 (ip), vehicle: Klucel (hydroxypropylcellulose) (HPC)); 105 % of control (dose: 200.0 mg/kg/injection, schedule: Q01DX009 (ip), vehicle: Klucel (hydroxypropylcellulose) (HPC)).

`Nc1n[nH]c(-c2ccccc2)n1`: the T/C runs as follows: (dose: 50.0 mg/kg/injection, schedule: Q01DX009 (ip), vehicle: saline with Tween-80) 117 % of control; (dose: 100.0 mg/kg/injection, schedule: Q01DX009 (ip), vehicle: saline with Tween-80) 101 % of control.
